Active and inactive are the calls of the source. The calls are words filed in the database; no cut-off is given here.
How the values were obtained:
MDA-MB-453 [1] = assay: Downregulation of Rb protein phosphorylation at Ser807 in human MDA-MB-453 cells incubated for 24 hrs by Western blot analysis; type: functional, cell-based; conditions: dose 37-333 nM
MDA-MB-453 [2] = assay: Downregulation of Rb protein phosphorylation at Ser780 in human MDA-MB-453 cells incubated for 24 hrs by Western blot analysis; type: functional, cell-based; conditions: dose 37-333 nM
[3] = biological target: Cyclin-dependent kinase 17 (Homo sapiens) (UniProt Q00537); assay: Inhibition of CDK17 (unknown origin) at 1 uM by discoverX kinomescan assay
MDA-MB-231 [4] = assay: Inhibition of RNA polymerase 2 C-terminal domain phosphorylation at Ser5 in heptad repeat in human MDA-MB-231 cells at 37 to 333 nM incubated for 24 hrs by Western blotting analysis; type: cell-based; conditions: dose 37-333 nM
[5] = Metabolic stability in human liver microsomes assessed as half-life; type: ADME, Microsome
MDA-MB-231 [6] = assay: Downregulation of Rb protein phosphorylation at Thr826 in human MDA-MB-231 cells incubated for 24 hrs by Western blot analysis; type: functional, cell-based; conditions: dose 37-333 nM
MDA-MB-231 [7] = assay: Downregulation of Rb protein phosphorylation at Ser608 in human MDA-MB-231 cells incubated for 24 hrs by Western blot analysis; type: functional, cell-based; conditions: dose 37-333 nM
[8] = AUC(0 to t) in CD1 mouse at 10 mg/kg, po measured upto 24 hrs by LC-MS/MS analysis; type: ADME, organism-based; conditions: in vivo
[9] = Toxicity in Balb/c mouse xenografted with human MDA-MB-231 cells assessed as change in body weight at 5 to 10 mg/kg po administered once daily for 21 days and measured every three days; type: organism-based; conditions: in vivo, 504 h, dose 5-10 mg/kg, time 21 day
MDA-MB-453 [10] = assay: Downregulation of Rb protein phosphorylation at Ser608 in human MDA-MB-453 cells incubated for 24 hrs by Western blot analysis; type: functional, cell-based; conditions: dose 37-333 nM
[11] = Oral bioavailability in CD1 mouse at 10 mg/kg measured upto 24 hrs by LC-MS/MS analysis; type: ADME, organism-based; conditions: in vivo
[12] = biological target: T1, Mitogen-activated protein kinase 15 (Homo sapiens) (UniProt Q8TD08); assay: Inhibition of ERK7 (unknown origin) at 1 uM by discoverX kinomescan assay
T1 sequence (whole entry): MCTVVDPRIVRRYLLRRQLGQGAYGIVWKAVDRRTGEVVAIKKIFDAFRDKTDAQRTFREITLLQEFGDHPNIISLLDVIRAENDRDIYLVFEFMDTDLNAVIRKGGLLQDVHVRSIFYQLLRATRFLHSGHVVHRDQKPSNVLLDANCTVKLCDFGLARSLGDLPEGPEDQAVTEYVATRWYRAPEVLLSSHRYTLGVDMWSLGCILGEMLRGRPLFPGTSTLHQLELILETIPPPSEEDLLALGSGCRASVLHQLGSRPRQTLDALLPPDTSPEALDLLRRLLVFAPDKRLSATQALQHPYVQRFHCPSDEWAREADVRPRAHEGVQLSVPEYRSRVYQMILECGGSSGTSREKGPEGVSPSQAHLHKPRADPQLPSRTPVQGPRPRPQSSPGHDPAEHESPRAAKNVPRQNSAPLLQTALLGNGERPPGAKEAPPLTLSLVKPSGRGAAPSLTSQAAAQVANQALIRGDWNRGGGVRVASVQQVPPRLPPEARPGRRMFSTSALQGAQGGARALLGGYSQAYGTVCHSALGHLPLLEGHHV

MDA-MB-231 [13] = assay: Antiproliferative activity against human MDA-MB-231 cells incubated for 120 hrs by CCK-8 assay; type: functional, cell-based; conditions: MDA-MB-231, 120 h
MDA-MB-453 [14] = assay: Induction of cell cycle arrest in human MDA-MB-453 cells assessed as G0/G1 phase arrest at 12.3 to 1000 nM incubated for 24 hrs by PI staining based flow cytometry analysis; type: functional; conditions: dose 12.3-1000 nM
[15] = biological target: Cyclin-dependent kinase 13 (Homo sapiens) (UniProt Q14004); assay: Inhibition of CDK13 (unknown origin) at 1 uM by discoverX kinomescan assay
[16] = Volume of distribution at steady state in CD1 mouse at 1 mg/kg, iv measured upto 24 hrs by LC-MS/MS analysis; type: ADME, organism-based; conditions: in vivo, read-out: Vdss
MDA-MB-231 [17] = assay: Induction of cell cycle arrest in human MDA-MB-231 cells assessed as G0/G1 phase arrest at 12.3 to 1000 nM incubated for 24 hrs by PI staining based flow cytometry analysis; type: functional; conditions: dose 12.3-1000 nM
MDA-MB-453 [18] = assay: Downregulation of Rb protein phosphorylation at Thr826 in human MDA-MB-453 cells incubated for 24 hrs by Western blot analysis; type: functional, cell-based; conditions: dose 37-333 nM
[19] = biological target: T2, Dual specificity mitogen-activated protein kinase kinase 5 (Homo sapiens, UniProt Q13163); assay: Inhibition of MAP2K5 (unknown origin) by discoverX kinomescan assay
T2 sequence (Q13163 whole entry): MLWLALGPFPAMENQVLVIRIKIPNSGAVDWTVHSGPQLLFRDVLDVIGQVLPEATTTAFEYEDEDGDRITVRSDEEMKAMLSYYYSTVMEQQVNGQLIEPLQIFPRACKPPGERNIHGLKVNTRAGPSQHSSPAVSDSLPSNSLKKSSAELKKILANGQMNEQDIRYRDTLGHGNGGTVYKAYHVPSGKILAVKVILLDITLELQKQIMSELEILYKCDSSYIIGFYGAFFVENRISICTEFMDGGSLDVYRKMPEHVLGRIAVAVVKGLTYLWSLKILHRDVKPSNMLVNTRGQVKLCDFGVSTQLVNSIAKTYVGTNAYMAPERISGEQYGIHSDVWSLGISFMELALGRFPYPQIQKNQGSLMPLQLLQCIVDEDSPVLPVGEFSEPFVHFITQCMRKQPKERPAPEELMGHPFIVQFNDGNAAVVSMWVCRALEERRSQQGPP

[20] = biological target: Cyclin-dependent kinase 16 (Homo sapiens) (UniProt Q00536); assay: Inhibition of CDK16 (unknown origin) at 1 uM by discoverX kinomescan assay
CDK7/Cyclin H/MNAT1 = CDK7/Cyclin H/MNAT1 (Homo sapiens, UniProt P50613); assay: Inhibition of human His-tagged CDK7/cyclin H/MNAT1 expressed in baculovirus infected insect cells preincubated for 10 mins followed by substrate and ATP addition and measured after 60 mins by ADP-Glo kinase assay; parameters: species or system Insect cell
[21] = biological target: Cyclin-dependent kinase 7 (Homo sapiens) (UniProt P50613); assay: Inhibition of CDK7 in human MDA-MB-453 cells assessed as decrease in Thr160 phosphorylation of CDK2 at 37 to 333 nM incubated for 24 hrs by Western blot substrate; type: cell-based; conditions: dose 37-333 nM
MDA-MB-231 [22] = assay: Downregulation of Rb protein phosphorylation at Ser807 in human MDA-MB-231 cells incubated for 24 hrs by Western blot analysis; type: functional, cell-based; conditions: dose 37-333 nM
[23] = biological target: T3, Dual specificity mitogen-activated protein kinase kinase 5 (Homo sapiens) (UniProt Q13163); assay: Inhibition of MAP2K5 (unknown origin) assessed as remaining activity at 1 uM by discoverX kinomescan assay relative to control
T3 sequence (whole entry): T2 sequence (Q13163 whole entry)

MDA-MB-453 [24] = assay: Antiproliferative activity against human MDA-MB-453 cells incubated for 120 hrs by CCK-8 assay; type: functional, cell-based; conditions: MDA-MB-453, 120 h
MDA-MB-453 [25] = assay: Downregulation of Rb protein phosphorylation at Ser811 in human MDA-MB-453 cells incubated for 24 hrs by Western blot analysis; type: functional, cell-based; conditions: dose 37-333 nM

Sequence of Cyclin-dependent kinase 7 (Homo sapiens) (P50613 whole entry): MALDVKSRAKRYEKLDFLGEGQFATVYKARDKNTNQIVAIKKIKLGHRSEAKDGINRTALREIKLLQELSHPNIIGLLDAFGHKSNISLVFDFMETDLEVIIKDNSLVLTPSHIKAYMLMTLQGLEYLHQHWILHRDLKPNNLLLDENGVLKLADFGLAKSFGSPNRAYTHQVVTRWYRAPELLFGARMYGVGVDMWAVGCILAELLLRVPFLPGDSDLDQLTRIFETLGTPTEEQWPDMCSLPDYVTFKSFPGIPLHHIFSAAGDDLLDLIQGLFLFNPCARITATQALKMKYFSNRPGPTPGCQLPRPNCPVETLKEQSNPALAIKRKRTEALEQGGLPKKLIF
Sequence of CDK7/Cyclin H/MNAT1 (P51946 whole entry): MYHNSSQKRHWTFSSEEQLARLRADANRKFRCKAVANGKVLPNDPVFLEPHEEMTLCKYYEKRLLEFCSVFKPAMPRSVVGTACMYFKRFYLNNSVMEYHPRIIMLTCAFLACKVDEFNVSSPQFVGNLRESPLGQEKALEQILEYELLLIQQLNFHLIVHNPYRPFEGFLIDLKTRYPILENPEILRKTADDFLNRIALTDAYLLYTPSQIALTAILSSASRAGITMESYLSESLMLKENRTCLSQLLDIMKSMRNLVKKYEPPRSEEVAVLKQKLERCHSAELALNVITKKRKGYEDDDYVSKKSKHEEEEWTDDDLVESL
Sequence of CDK7/Cyclin H/MNAT1 (P50613 whole entry): as the sequence (P50613 whole entry) above
Sequence of CDK7/Cyclin H/MNAT1 (P51948 whole entry, further chain): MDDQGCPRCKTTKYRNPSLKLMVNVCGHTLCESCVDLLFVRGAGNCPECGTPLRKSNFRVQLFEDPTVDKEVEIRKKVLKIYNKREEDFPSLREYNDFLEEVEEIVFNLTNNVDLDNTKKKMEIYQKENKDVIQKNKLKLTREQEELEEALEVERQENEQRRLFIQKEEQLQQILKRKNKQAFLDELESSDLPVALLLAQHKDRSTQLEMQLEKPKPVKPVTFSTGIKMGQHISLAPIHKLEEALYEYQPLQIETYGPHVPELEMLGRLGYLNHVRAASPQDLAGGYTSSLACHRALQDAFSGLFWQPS
Sequence of Cyclin-dependent kinase 13 (Homo sapiens) (Q14004 whole entry, looked up): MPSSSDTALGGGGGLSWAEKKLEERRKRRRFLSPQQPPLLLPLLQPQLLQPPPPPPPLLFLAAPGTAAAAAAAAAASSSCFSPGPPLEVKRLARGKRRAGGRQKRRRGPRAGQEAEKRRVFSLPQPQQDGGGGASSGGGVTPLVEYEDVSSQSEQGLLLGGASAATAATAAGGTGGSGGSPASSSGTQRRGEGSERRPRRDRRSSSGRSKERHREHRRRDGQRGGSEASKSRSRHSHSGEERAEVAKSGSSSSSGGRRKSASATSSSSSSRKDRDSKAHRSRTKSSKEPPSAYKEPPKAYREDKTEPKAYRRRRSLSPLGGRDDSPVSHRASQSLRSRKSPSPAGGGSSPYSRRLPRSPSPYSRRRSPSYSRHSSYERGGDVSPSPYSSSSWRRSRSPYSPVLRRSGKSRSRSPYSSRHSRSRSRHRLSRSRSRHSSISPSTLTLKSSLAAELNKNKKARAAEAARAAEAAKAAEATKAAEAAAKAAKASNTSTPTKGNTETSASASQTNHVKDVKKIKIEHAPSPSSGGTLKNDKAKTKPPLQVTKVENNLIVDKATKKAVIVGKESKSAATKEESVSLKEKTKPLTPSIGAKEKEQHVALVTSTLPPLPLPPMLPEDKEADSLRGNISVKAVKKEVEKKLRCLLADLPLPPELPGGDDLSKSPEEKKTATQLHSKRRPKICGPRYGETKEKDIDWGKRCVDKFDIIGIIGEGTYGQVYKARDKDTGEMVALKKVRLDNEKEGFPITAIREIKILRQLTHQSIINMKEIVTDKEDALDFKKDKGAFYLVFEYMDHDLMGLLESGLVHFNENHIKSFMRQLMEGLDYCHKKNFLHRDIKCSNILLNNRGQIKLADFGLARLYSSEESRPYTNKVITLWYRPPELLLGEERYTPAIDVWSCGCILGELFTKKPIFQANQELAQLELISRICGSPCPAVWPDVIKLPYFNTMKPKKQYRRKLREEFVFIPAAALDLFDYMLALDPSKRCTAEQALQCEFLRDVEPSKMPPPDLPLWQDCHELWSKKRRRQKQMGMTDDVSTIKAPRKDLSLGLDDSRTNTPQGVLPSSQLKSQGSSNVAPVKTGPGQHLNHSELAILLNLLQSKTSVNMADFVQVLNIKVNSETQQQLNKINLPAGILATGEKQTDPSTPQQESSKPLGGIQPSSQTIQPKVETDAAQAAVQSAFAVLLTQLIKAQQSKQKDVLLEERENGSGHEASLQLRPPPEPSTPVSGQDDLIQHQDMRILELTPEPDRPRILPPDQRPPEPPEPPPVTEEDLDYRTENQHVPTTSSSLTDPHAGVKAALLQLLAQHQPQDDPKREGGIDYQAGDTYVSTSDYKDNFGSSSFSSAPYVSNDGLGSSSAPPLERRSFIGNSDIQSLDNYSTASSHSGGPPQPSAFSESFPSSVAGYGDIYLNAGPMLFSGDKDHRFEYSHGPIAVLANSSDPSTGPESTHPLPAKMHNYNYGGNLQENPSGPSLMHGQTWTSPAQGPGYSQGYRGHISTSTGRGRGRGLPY
Sequence of Cyclin-dependent kinase 16 (Homo sapiens) (Q00536 whole entry): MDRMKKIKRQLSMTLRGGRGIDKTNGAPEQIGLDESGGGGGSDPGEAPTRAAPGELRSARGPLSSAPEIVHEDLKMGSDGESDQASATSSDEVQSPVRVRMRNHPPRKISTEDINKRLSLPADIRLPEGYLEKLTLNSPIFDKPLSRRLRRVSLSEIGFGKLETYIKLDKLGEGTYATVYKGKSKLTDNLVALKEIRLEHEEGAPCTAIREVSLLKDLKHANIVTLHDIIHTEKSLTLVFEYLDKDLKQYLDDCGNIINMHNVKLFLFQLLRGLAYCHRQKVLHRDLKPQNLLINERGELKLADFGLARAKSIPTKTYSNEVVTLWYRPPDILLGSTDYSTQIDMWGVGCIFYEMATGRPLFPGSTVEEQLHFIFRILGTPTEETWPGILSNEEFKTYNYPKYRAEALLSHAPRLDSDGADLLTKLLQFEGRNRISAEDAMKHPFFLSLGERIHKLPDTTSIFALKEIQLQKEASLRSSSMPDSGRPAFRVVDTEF
Sequence of Cyclin-dependent kinase 17 (Homo sapiens) (Q00537 whole entry, looked up, the tested form may be a part): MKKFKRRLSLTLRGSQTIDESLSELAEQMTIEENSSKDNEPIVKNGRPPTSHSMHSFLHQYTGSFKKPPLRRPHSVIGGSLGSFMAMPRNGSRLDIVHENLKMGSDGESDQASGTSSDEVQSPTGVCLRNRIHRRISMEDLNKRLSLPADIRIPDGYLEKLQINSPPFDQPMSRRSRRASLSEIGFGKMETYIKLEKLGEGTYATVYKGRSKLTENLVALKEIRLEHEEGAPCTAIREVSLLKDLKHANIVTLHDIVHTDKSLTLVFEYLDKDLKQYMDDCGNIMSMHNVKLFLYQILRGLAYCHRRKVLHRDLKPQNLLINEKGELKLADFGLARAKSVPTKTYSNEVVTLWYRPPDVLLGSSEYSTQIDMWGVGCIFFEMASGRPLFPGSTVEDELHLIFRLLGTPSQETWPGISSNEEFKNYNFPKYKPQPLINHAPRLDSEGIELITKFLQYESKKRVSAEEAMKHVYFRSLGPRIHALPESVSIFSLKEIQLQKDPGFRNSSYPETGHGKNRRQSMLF

CP(C)(=O)c1c(C#N)ccc2c(-c3nc(N[C@@H]4CNC[C@@H](F)C4)nc4ccsc34)c[nH]c12
Activity (MDA-MB-453 [1]): Dose-Dependent Effect
Activity (MDA-MB-453 [2]): Dose-Dependent Effect
inhibition [3]: inactive
inhibition (MDA-MB-231 [4]): Active
half-life [5]: 1.2 h
Activity (MDA-MB-231 [6]): Dose-Dependent Effect
Activity (MDA-MB-231 [7]): Dose-Dependent Effect
AUC(0-t) at 24 h [8]: 513 ng·h/mL
Activity [9]: Non-Toxic
Activity (MDA-MB-453 [10]): Dose-Dependent Effect
bioavailability [11]: 22.3%
inhibition [12]: inactive
EC50 (MDA-MB-231 [13]): 320 nM
Activity (MDA-MB-453 [14]): Active
inhibition [15]: inactive
Vd [16]: 4.6 L/kg
Activity (MDA-MB-231 [17]): Active
Activity (MDA-MB-453 [18]): Dose-Dependent Effect
IC50 [19]: 170 nM
inhibition [20]: inactive
IC50 (CDK7/Cyclin H/MNAT1): 6.5 nM
inhibition [21]: Active
Activity (MDA-MB-231 [22]): Dose-Dependent Effect
Activity [23]: < 1%
EC50 (MDA-MB-453 [24]): 150 nM
Activity (MDA-MB-453 [25]): Dose-Dependent Effect

— ChEMBL document CHEMBL5532658 (Eur J Med Chem, 2024)
